{
  "source": "patent US11344630B2",
  "about": "“Methods and compositions for red-shifted chromophore substitution for optogenetic applications” (Washington University, priority 2014, dated 2022)",
  "key": {"Opn1mw4": {"test_system": "Opn1mw4", "test": "RNA-seq expression profiling of RPE samples from thyroid hormone-treated zebrafish (photoreceptor transcripts)", "format": "in vivo", "conditions": "thyroid hormone-treated 'RPE' samples vs controls", "text": "We therefore analyzed a range of photoreceptor gene transcripts in our thyroid hormone-treated ‘RPE’ and controls, and found similar levels of photoreceptor contamination between the two samples."}, "Cyp27c1 transcript": {"test_system": "Cyp27c1 transcript", "test": "RNA-seq expression profiling of RPE from thyroid hormone-treated zebrafish vs vehicle-treated controls", "format": "in vivo", "conditions": "zebrafish treated 3 weeks with thyroid hormone vs vehicle-treated controls", "text": "FIG. 2A and FIG. 2B depict the results of RNA-seq-based expression profiling of zebrafish and bullfrog retinal pigment epithelium (RPE). (FIG. 2A) RNA-seq results comparing the expression levels of individual transcripts (shown as black circles) from RPE derived from zebrafish treated for 3 weeks with thyroid hormone and vehicle-treated controls. The location of the Cyp27c1 transcript is circled in red. (FIG. 2B) RNA-seq results comparing the expression levels of individual transcripts (shown as black circles) from dorsal and ventral bullfrog RPE. The location of the Cyp27c1 transcript is circled in red.\nIt has long been postulated that the conversion of retinal into 3,4-dehydroretinal in migratory fish is mediated by a ‘terminal ring dehydrogenase’^8. […] To identify the transcript encoding this enzyme, we carried out transcriptome profiling of thyroid hormone-treated fish and compared them to vehicle-treated controls. We hypothesized that the enzyme was likely to be expressed in one of three tissues: retinal pigment epithelium (which lies immediately adjacent to photoreceptors and is a known source of retinoids), retina or liver. We obtained RNA-seq data for RPE and identified an excellent candidate transcript, flj13639. This transcript encodes an ‘orphan’ member of the cytochrome P450 family of monooxygenases, Cyp27c1 (FIG. 2A). […]"}, "red single cones": {"test_system": "red single cones", "test": "Suction electrode recordings of red single cones from wild-type and cyp27c1 mutant fish", "format": "in vivo", "conditions": "cyp27c1 mutant zebrafish after thyroid hormone treatment", "text": "FIG. 11A and FIG. 11B depict graphs presenting suction electrode recordings of red single cones from wild-type and Cyp27c1 mutant fish. […] (FIG. 11A) Untreated wild-type and mutant zebrafish have similar sensitivity.\nTo continue to probe the effects of Cyp27c1, we generated cyp27c1 null mutant zebrafish. […] We then utilized the mutant zebrafish to identify their ability to covert retinol (A1) to 3,4-didehydroretinol (A2). […] Suction electrode recordings of red single cones from wild-type and cyp27c1 mutant fish were performed."}, "adult zebrafish": {"test_system": "adult zebrafish", "test": "Thyroid hormone treatment of zebrafish, retinoid content of retinas by HPLC", "format": "in vivo", "text": "(§1) FIG. 1A, FIG. 1B, FIG. 1C, FIG. 1D, FIG. 1E, FIG. 1F, FIG. 1G, FIG. 1H, FIG. 1I, FIG. 1J and FIG. 1K depict images and graphs showing that diverse species employ a vitamin A1 to vitamin A2 switch to red-shift the spectral sensitivity of their photoreceptors. (FIG. 1A) Depicts the conversion of all-trans retinol (vitamin A1) into all-trans 3,4-didehydroretinol (vitamin A2). (FIG. 1B, FIG. 1C, FIG. 1D) Depict several species that switch between the use of vitamin A1 and vitamin A2 for vision at different stages of their life cycle. (FIG. 1B) Sea lamprey; (FIG. 1C) Coho salmon; and (FIG. 1D) Northern leopard frog. (FIG. 1E, FIG. 1F, FIG. 1G, FIG. 1H) depict graphs showing that thyroid hormone treatment of adult zebrafish induces quantitative conversion of retinol into 3,4-didehydroretinol. Adult zebrafish were treated with 300 μg/liter thyroid hormone (L-thyroxine) in their water for three weeks. The retinas were then harvested, and retinoid extracts were reduced with sodium borohydride and analyzed by HPLC. (FIG. 1E) Depicts the position of peak #1 in control zebrafish. (FIG. 1F) Depicts the position of peak #2 in TH-treated zebrafish. […] Note that only vitamin A1 and its derivatives (the retinal form has been reduced to the alcohol form) are detected in the ventral RPE whereas both vitamin A1 and vitamin A2 are present in nearly equal proportions in the dorsal RPE. […]"}, "[1]": {"test": "Absorbance spectra of retinoid HPLC peaks", "format": "physicochemical", "conditions": "predominant retinoid species of zebrafish retina extracts, reduced with sodium borohydride", "text": "as §1"}, "[2]": {"target": "T1, archaerhodopsin proton pump, AR-3 (Halorubrum sodomense, UniProt P96787)", "T1 construct": "host or cells: E. coli", "T1 sequence (P96787 7-258)": "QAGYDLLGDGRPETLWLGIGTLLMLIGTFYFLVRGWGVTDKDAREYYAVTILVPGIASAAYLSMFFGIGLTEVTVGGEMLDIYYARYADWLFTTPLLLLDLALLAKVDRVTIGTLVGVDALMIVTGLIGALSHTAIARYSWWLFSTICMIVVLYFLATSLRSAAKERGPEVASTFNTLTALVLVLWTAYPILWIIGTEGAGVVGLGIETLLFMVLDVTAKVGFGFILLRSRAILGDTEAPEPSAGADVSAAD", "conditions": "cited from earlier work; for wavelength of half-maximal absorption on the red slope of the curve: AR-3 expressed in E. coli, chromophore as labelled"}, "optogenetic actuators": {"test_system": "optogenetic actuators", "conditions": "replacing retinal with 3,4-didehydroretinal, in vitro; cited from earlier work"}, "HEK293 cells": {"test_system": "HEK293 cells", "test": "Cyp27c1 expression in HEK293 cells incubated with retinol, retinoids by HPLC", "format": "cell-based, human", "conditions": "transfected HEK293 cells incubated with retinol 24 hours, vs empty vector", "experimental": "FIG. 5A, FIG. 5B, FIG. 5C, FIG. 5D and FIG. 5E depict the results of introducing an expression construct containing the zebrafish ortholog of Cyp27c1 into HEK293 cells and incubating with retinol for 24 hours (vitamin A1). […] (FIG. 5D, FIG. 5E) depicts the HPLC profile of commercially obtained chemical standards A1 (FIG. 5D) and A2 (FIG. 5E).\nNext, we determined if Cyp27c1 is sufficient to convert retinal to 3,4-didehydroretinal. We cloned a full-length zebrafish Cyp27c1 cDNA and a full-length human Cyp27c1 cDNA into a mammalian expression vector and expressed it in HEK293 cells. FIG. 3 confirms that the recombinant zebrafish and human Cyp27c1 are expressed in the HEK293 cells."}},
  "note": "Entries after “also recorded” stand apart in the source; their conditions may differ.",
  "data": [
    {"molecule": "N[C@@H](Cc1cc(I)c(Oc2cc(I)c(O)c(I)c2)c(I)c1)C(=O)O", "note": "[thyroid hormone, L-thyroxine]", "values": [
      {"measurement": "Opn1mw4 transcript upregulation", "setting": "Opn1mw4", "result": 4, "unit": "fold"},
      {"measurement": "Cyp27c1 transcript expression level in RPE", "setting": "Cyp27c1 transcript", "result": "markedly upregulated"},
      {"measurement": "red-shift of red cone sensitivity", "setting": "red single cones", "result": "fail to red-shift"},
      {"measurement": "HPLC profile of retinoids", "setting": "adult zebrafish; thyroid hormone treated cyp27c1 null mutant zebrafish", "result": "only the presence of A1"},
      {"measurement": "conversion of retinal into 3,4-dehydroretinal (A1 to A2) in retinas", "setting": "adult zebrafish; wild-type adult zebrafish, 300 μg/liter L-thyroxine in water, three weeks, HPLC", "result": "quantitative conversion of retinal into 3,4-dehydroretinal; also recorded: conversion of A1 to A2"}
    ]},
    {"molecule": "CC1=C(/C=C/C(C)=C/C=C/C(C)=C/CO)C(C)(C)CCC1", "note": "[retinol, all-trans retinol]", "values": [
      {"measurement": "absorbance maximum (peak)", "setting": "[1]", "result": 326, "unit": "nm"}
    ]},
    {"molecule": "CC1=C(/C=C/C(C)=C/C=C/C(C)=C/CO)C(C)(C)CC=C1", "note": "[3,4-didehydroretinol, all-trans 3,4-didehydroretinol]", "values": [
      {"measurement": "absorbance maximum (peak)", "setting": "[1]", "result": 355, "unit": "nm"}
    ]},
    {"molecule": "CC1=C(/C=C/C(C)=C/C=C/C(C)=C/C=O)C(C)(C)CC=C1", "note": "[3,4-didehydroretinal]", "values": [
      {"measurement": "red-shift of wavelength of half-maximal absorption", "setting": "[2]; 3,4-didehydroretinal in place of retinal in AR-3", "result": 40, "unit": "nm"},
      {"measurement": "wavelength of half-maximal absorption on the red slope of the curve", "setting": "[2]", "result": 639, "unit": "nm"},
      {"measurement": "red-shift of action spectra", "setting": "optogenetic actuators", "result": "greater than 30 nm"}
    ]},
    {"molecule": "CC1=C(/C=C/C(C)=C/C=C/C(C)=C/C=O)C(C)(C)CCC1", "note": "[retinal, all-trans retinal]", "values": [
      {"measurement": "wavelength of half-maximal absorption on the red slope of the curve", "setting": "[2]", "result": 599, "unit": "nm"}
    ]},
    {"molecule": "zebrafish Cyp27c1: cytochrome P450, family 27, subfamily C, polypeptide 1 encoded by the cyp27c1 gene from Danio rerio (protein, UniProt A8WGA0 1-540, looked up) Cytochrome P450 27C1: MALQSTILHMARKNLLQESCRQLLIQTHGLHKSVASGSLEIAAHSQADLKEESAVSPAEEVQKAARVKSLKEMPGPSTVANLLEFFYRDGFSRIHEIQMEHAKKYGKIFKSRFGPQFVVSIADRDMVAQVLRSESATPQRGNMESWKEYRDLRGRSTGLISAEGDEWLKMRSVLRQLIMRPRDVAVFSSDVNDVVADLVKRVKTLRSQQDDSQTVLNINDLFFKYAMEGVATILYETRLGCLENEIPKMSQEYITALHLMFSSFKTTMYAGAIPKWLRPIIPKPWEEFCSSWDGLFKFSQIHVDKRLSEIKKQMEKSEEIKGGLLTHMLVTREMNLEEIYANMTEMLLAGVDTTSFTLSWSTYLLARHPTIQQQIFEEVDRVLGGRVPTGEDVPYLPLIRGLVKETLRLFPVLPGNGRVTHDDLIVGGYLIPKGTQLALCHYSTSMDEENFPRPEEFRPDRWIRKDASDRVDNFGSIPFGYGIRSCIGRRIAELEMHLALTQLLQNFHIEVSPQTTEVHAKTHGLLCPGASINLRFTDRK", "values": [
      {"measurement": "formation of 3,4-didehydroretinol (A2) from retinol", "setting": "HEK293 cells", "result": "significant quantities of 3,4-didehydroretinol"}
    ]},
    {"molecule": "human Cyp27c1: cytochrome P450, family 27, subfamily C, polypeptide 1 encoded by the cyp27c1 gene from Homo sapiens (protein, UniProt Q4G0S4 81-542, looked up) Cytochrome P450 27C1: ANLAEFFCRDGFSRIHEIQQKHTREYGKIFKSHFGPQFVVSIADRDMVAQVLRAEGAAPQRANMESWREYRDLRGRATGLISAEGEQWLKMRSVLRQRILKPKDVAIYSGEVNQVIADLIKRIYLLRSQAEDGETVTNVNDLFFKYSMEGVATILYESRLGCLENSIPQLTVEYIEALELMFSMFKTSMYAGAIPRWLRPFIPKPWREFCRSWDGLFKFSQIHVDNKLRDIQYQMDRGRRVSGGLLTYLFLSQALTLQEIYANVTEMLLAGVDTTSFTLSWTVYLLARHPEVQQTVYREIVKNLGERHVPTAADVPKVPLVRALLKETLRLFPVLPGNGRVTQEDLVIGGYLIPKGTQLALCHYATSYQDENFPRAKEFRPERWLRKGDLDRVDNFGSIPFGHGVRSCIGRRIAELEIHLVVIQLLQHFEIKTSSQTNAVHAKTHGLLTPGGPIHVRFVNRK", "values": [
      {"measurement": "formation of 3,4-didehydroretinol (A2) from retinol", "setting": "HEK293 cells", "result": "significant quantities of 3,4-didehydroretinol"}
    ]}
  ]
}
